Results as given in patent US10519177B2, “Heterocyclic compounds and uses thereof” (Plexxikon Inc., priority 2013, dated 2019).

target: BRD4-BD1 (44-164) (Homo sapiens (Human), UniProt O60885); experiment: Alphascreen binding assay BRD4-BD1; conditions: BRD4(1) H4; read-out: Biochemical activity (IC50 μM) BRD4(1) H4
Method: Binding of compounds of formula (I) with bromodomain 2, 3 4 was assessed using Alphascreen binding assay. The inhibition of the interaction between bromodomain and its acetylated target protein (Filippakopoulos P et al. 2012) was measured quantitatively using recombinant BRD proteins, an acetylated Histone 4 peptide and AlphaScreen™ technology. In absence of inhibition the BRD protein bound to AlphaScreen™ nickel chelate acceptor beads can interact with the acetylated Histone 4 peptide which is immobilized by the AlphaScreen™ Streptavidin coated beads. This interaction brings donor and acceptor beads in proximity. The close proximity allows the singlet oxygen produced by laser excitation of the donor beads to reach the acceptor beads and generate a luminescence signal.
Recombinant human bromodomains containing the N-terminal bromodomain (BRD2-BD1 (71-194), BRD3-BD1 (24-144) and BRD4-BD1 (44-164)) or dual bromodomains (BRD4-BD12 (1-477), BRD4-BD12 (1-472)) were prepared and purified as described in protein expression and purification session. The peptide is human Histone H41-21K5AcK8AcK12AcK16Ac-Biotin (Anaspec CA, USA).
Protocol for BRD2, BRD3 and BRD4 assay: All components are prepared in buffer composed of 50 mM HEPES pH 7.5, 100 mM NaCl, 0.01% bovine serum albumin (“BSA”), 0.01% Triton X-100, 2 mM dithiothreitol (“DTT”). 7 μL of Bromodomain protein and 7 μL of peptide are added to wells containing 1 μL of various concentrations of test compounds of formula (I) or DMSO vehicle in an Alphaplate (PerkinElmer GA, USA) and incubated for 1 hour at room temperature. 4 μL donor and acceptor bead mixture is then added with final concentrations of 7.5 μg/ml. 30 minutes after bead addition, Alpha signal is read on the Envision spectrometer (λEx 680 nm, λEm 520-620 nm). Final concentrations of bromodomain proteins and peptide are as shown below.
All data was normalized to the mean of 16 high and 16 low control wells on each plate. A four parameter curve fit of the following formula was then applied: Y=a+(b−a)/(1+(x/c)^d) Where ‘a’ is the minimum, ‘b’ is the maximum, ‘c’ is the pIC50 and ‘d’ is the Hill slope. Protein Expression and Purification
Recombinant human bromodomains containing the N-terminal bromodomain (BRD2-BD1 (71-194), BRD3-BD1 (24-144) and BRD4-BD1 (44-164)) or dual bromodomains (BRD4-BD12 (1-477), BRD4-BD12 (1-472)) were expressed in E. coli cells (in a modified pET vector) with an N-terminal six-His tag and purified using a combination of both IMAC (Ni-affinity) and size exclusion chromatography steps.
Recombinant BRD proteins were expressed using the E. coli strain BL21-CodonPlus (DE3) (Agilent Technologies CA, USA). Cells were grown in Terrific Broth (TB) media to an OD600 of 1.2 at 37° C. at which temperature was reduced to 25° C., protein was induced with 1.0 mM ispropyl-β-D-thiogalactopyranoside (“IPTG”) for 12-18 hours and harvested by centrifugation at 8000×g for 20 minutes. Cells were re-suspended in 0.1M K2PO4 pH 8.0, 250 mM NaCl, 10% Glycerol, 0.75% NP-40, 25 mM Imidazole, 5 mM beta-mercaptoethanol (“BME”) with 0.2 mg/ml Lysosyme, 2.0 mM phenylmethanesulfonyl fluoride (“PMSF”), 25 μg/ml DNAse I, incubated on ice for 30 minutes and lyzed with a cell disruptor (MicroFluidics MA, USA). The lysate was clarified by centrifugation at 20,000×g for 2 hours. The protein was captured with Ni-NTA resin (Life Technologies, USA). Contaminating proteins were washed off with 25 mM Tris-HCl pH 8.3, 250 mM NaCl, 12% Glycerol and 50 mM Imidazole. Following 3× wash steps, protein was eluted step wise using a 50 mM HEPES pH 7.5, 500 mM NaCl and 400 mM Imidazole. The protein was further purified using Gel Filtration column 26/600 Superdex 200 (GE Biosciences NJ, USA) in 50 mM HEPES pH 7.5, 250 mM NaCl. The protein was aliquoted and flash-frozen in liquid Nitrogen.

| Structure (SMILES) | IC50 |
| --- | --- |
| Cc1noc(C)c1-c1cnc2ccn(C(C)c3ccccc3)c2c1 (stereo not drawn) [P-0159, 3,5-dimethyl-4-[1-(1-phenylethyl)pyrrolo[3,2-b]pyridin-6-yl]isoxazole] | < 1 µM |
| C=CCn1cc(-c2cn(S(=O)(=O)CCC)c3cc(-c4c(C)noc4C)cnc23)cn1 [P-0137, 4-[3-(1-allylpyrazol-4-yl)-1-propylsulfonyl-pyrrolo[3,2-b]pyridin-6-yl]-3,5-dimethyl-isoxazole] | < 1 µM |
| Cc1noc(C)c1-c1cnc2c(c1)c(C(O)C1CCSCC1)cn2S(=O)(=O)c1ccccc1 (stereo not drawn) [P-0090, [1-(benzenesulfonyl)-5-(3,5-dimethylisoxazol-4-yl)pyrrolo[2,3-b]pyridin-3-yl]-tetrahydrothiopyran-4-yl-methanol] | < 1 µM |
| Cc1noc(C)c1-c1cnc2c(-c3cnn(C)c3)cn(Cc3c(Cl)cccc3Cl)c2c1 [P-0189, 4-[1-[(2,6-dichlorophenyl)methyl]-3-(1-methylpyrazol-4-yl)pyrrolo[3,2-b]pyridin-6-yl]-3,5-dimethyl-isoxazole] | < 1 µM |
| COC(c1ccc(C(F)(F)F)nc1)c1c[nH]c2ncc(-c3c(C)noc3C)cc12 (stereo not drawn) [P-0013, 4-[3-[methoxy-[6-(trifluoromethyl)-3-pyridyl]methyl]-1H-pyrrolo[2,3-b]pyridin-5-yl]-3,5-dimethyl-isoxazole] | < 1 µM |
| CCc1[nH]c2ncc(-c3c(C)noc3C)cc2c1C(O)C1CCC(F)(F)CC1 (stereo not drawn) [P-0044, (4,4-difluorocyclohexyl)-[5-(3,5-dimethylisoxazol-4-yl)-2-ethyl-1H-pyrrolo[2,3-b]pyridin-3-yl]methanol] | < 1 µM |
| Cc1noc(C)c1-c1cnc2c(-c3cnn(C(F)F)c3)cn(Cc3ccccc3F)c2c1 [P-0176, 4-[3-[1-(difluoromethyl)pyrazol-4-yl]-1-[(2-fluorophenyl)methyl]pyrrolo[3,2-b]pyridin-6-yl]-3,5-dimethyl-isoxazole] | < 1 µM |
| Cc1noc(C)c1-c1cnc2ccn(S(=O)(=O)c3ccccc3F)c2c1 [P-0060, 4-[1-(2-fluorophenyl)sulfonylpyrrolo[3,2-b]pyridin-6-yl]-3,5-dimethyl-isoxazole] | < 1 µM |
| Cc1noc(C)c1-c1cnc2[nH]c(C)c(Cc3cccnc3)c2c1 [P-0005, 3,5-dimethyl-4-[2-methyl-3-(3-pyridylmethyl)-1H-pyrrolo[2,3-b]pyridin-5-yl]isoxazole] | < 1 µM |
| Cc1noc(C)c1-c1cnc2c(-c3cnn(C)c3)cn(C(C)c3ccccc3)c2c1 (stereo not drawn) [P-0161, 3,5-dimethyl-4-[3-(1-methylpyrazol-4-yl)-1-(1-phenylethyl)pyrrolo[3,2-b]pyridin-6-yl]isoxazole] | < 1 µM |
| Cc1noc(C)c1-c1cnc2c(C#CCO)cn(S(=O)(=O)c3ccccc3)c2c1 [P-0155, 3-[1-(benzenesulfonyl)-6-(3,5-dimethylisoxazol-4-yl)pyrrolo[3,2-b]pyridin-3-yl]prop-2-yn-1-ol] | < 1 µM |
| Cc1noc(C)c1-c1cnc2c(-c3cnn(C)c3)cn(Cc3cc(F)ccc3Cl)c2c1 [P-0190, 4-[1-[(2-chloro-5-fluoro-phenyl)methyl]-3-(1-methylpyrazol-4-yl)pyrrolo[3,2-b]pyridin-6-yl]-3,5-dimethyl-isoxazole] | < 1 µM |
| Cc1noc(C)c1-c1cnc2[nH]cc(C3(O)CCC(F)(F)CC3)c2c1 [P-0024, 1-[5-(3,5-dimethylisoxazol-4-yl)-1H-pyrrolo[2,3-b]pyridin-3-yl]-4,4-difluoro-cyclohexanol] | < 1 µM |
| CCOC(=O)C(c1ccccc1)n1cc(-c2cnn(C)c2)c2ncc(-c3c(C)noc3C)cc21 (stereo not drawn) [P-0186, ethyl 2-[6-(3,5-dimethylisoxazol-4-yl)-3-(1-methylpyrazol-4-yl)pyrrolo[3,2-b]pyridin-1-yl]-2-phenyl-acetate] | < 1 µM |
| C=CCn1cc(-c2cn(S(=O)(=O)c3ccccc3)c3cc(-c4c(C)noc4C)cnc23)cn1 [P-0126, 4-[3-(1-allylpyrazol-4-yl)-1-(benzenesulfonyl)pyrrolo[3,2-b]pyridin-6-yl]-3,5-dimethyl-isoxazole] | < 1 µM |
| Cc1noc(C)c1-c1cnc2c(-c3cnn(C)c3)cn(S(=O)(=O)c3ccccc3F)c2c1 [P-0121, 4-[1-(2-fluorophenyl)sulfonyl-3-(1-methyl-pyrazol-4-yl)pyrrolo[3,2-b]pyridin-6-yl]-3,5-dimethyl-isoxazole] | < 1 µM |
| Cc1noc(C)c1-c1cnc2c(-c3cnn(C)c3)cn(Cc3ccccc3Cl)c2c1 [P-0193, 4-[1-[(2-chlorophenyl)methyl]-3-(1-methylpyrazol-4-yl)pyrrolo[3,2-b]pyridin-6-yl]-3,5-dimethyl-isoxazole] | < 1 µM |
| COC(c1c[nH]c2ncc(-c3c(C)noc3C)cc12)C1CCS(=O)(=O)CC1 (stereo not drawn) [P-0089, 4-[[5-(3,5-dimethylisoxazol-4-yl)-1H-pyrrolo[2,3-b]pyridin-3-yl]-methoxy-methyl]thiane 1,1-dioxide] | < 1 µM |
| Cc1noc(C)c1-c1cnc2[nH]cc(C(c3ccc(F)cc3)(C3CC3)C3CC3)c2c1 [P-0085, 4-[3-[dicyclopropyl-(4-fluorophenyl)methyl]-1H-pyrrolo[2,3-b]pyridin-5-yl]-3,5-dimethyl-isoxazole] | < 1 µM |
| Cc1noc(C)c1-c1cnc2[nH]cc(Cc3c(F)cccc3Cl)c2c1 [P-0027, 4-[3-[(2-chloro-6-fluoro-phenyl)methyl]-1H-pyrrolo[2,3-b]pyridin-5-yl]-3,5-dimethyl-isoxazole] | < 1 µM |
| CCc1[nH]c2ncc(-c3c(C)noc3C)cc2c1Cc1ccccc1Cl [P-0049, 4-[3-[(2-chlorophenyl)methyl]-2-ethyl-1H-pyrrolo[2,3-b]pyridin-5-yl]-3,5-dimethyl-isoxazole] | < 1 µM |
| COC(c1c[nH]c2ncc(-c3c(C)noc3C)cc12)C1CCC(F)(F)CC1 (stereo not drawn) [P-0073, 4-[3-[(4,4-difluorocyclohexyl)-methoxy-methyl]-1H-pyrrolo[2,3-b]pyridin-5-yl]-3,5-dimethyl-isoxazole] | < 1 µM |
| CCC(c1cn(C)c2ncc(-c3c(C)noc3C)cc12)C1CCC(F)(F)CC1 (stereo not drawn) [P-0118, 4-[3-[1-(4,4-difluorocyclohexyl)propyl]-1-methyl-pyrrolo[2,3-b]pyridin-5-yl]-3,5-dimethyl-isoxazole] | < 1 µM |
| C=CCn1cc(-c2cn(S(=O)(=O)C(C)CC)c3cc(-c4c(C)noc4C)cnc23)cn1 (stereo not drawn) [P-0138, 4-[3-(1-allylpyrazol-4-yl)-1-sec-butyl-sulfonyl-pyrrolo[3,2-b]pyridin-6-yl]-3,5-dimethyl-isoxazole] | < 1 µM |
| Cc1noc(C)c1-c1cnc2c(-c3cn[nH]c3)cn(S(=O)(=O)C3CCCC3)c2c1 [P-0167, 4-[1-cyclopentylsulfonyl-3-(1H-pyrazol-4-yl)pyrrolo[3,2-b]pyridin-6-yl]-3,5-dimethyl-isoxazole] | < 1 µM |
| Cc1noc(C)c1-c1cnc2c(-c3cnn(C)c3)cn(CC3CCC(F)(F)CC3)c2c1 [P-0209, 4-[1-[(4,4-difluorocyclohexyl)methyl]-3-(1-methylpyrazol-4-yl)pyrrolo[3,2-b]pyridin-6-yl]-3,5-dimethyl-isoxazole] | < 1 µM |
| Cc1noc(C)c1-c1cnc2[nH]cc(C(O)c3cccc(OC(F)(F)F)c3)c2c1 (stereo not drawn) [P-0039, [5-(3,5-dimethylisoxazol-4-yl)-1H-pyrrolo[2,3-b]pyridin-3-yl]-[3-(trifluoromethoxy)phenyl]methanol] | < 1 µM |
